The values below come from ChEMBL document CHEMBL3120064, “Synthesis and biological evaluation of baicalein derivatives as potent antitumor agents” (Bioorg Med Chem Lett, 2014).

Molecules are shown by their SMILES. Activity calls are given as the source filed them. The rule behind the calls is not given here.

Experiment [1] deals with HepG2. As to the kind of experiment: Antiproliferative activity against human HepG2 cells after 48 hrs by MTT assay. In kind it is functional, cell-based. The following applies: HepG2, 48 h. (In general: Tetrazolium assays rely on reduction of a dye to a coloured formazan, in cell work by metabolically active cells.)
Experiment [2] can be described thus: Antiproliferative activity against human BCG823 cells after 48 hrs by MTT assay. In kind it is functional, cell-based. Particulars: BCG823, 48 h.
The subject of another experiment is A549. Put plainly: Antiproliferative activity against human A549 cells after 48 hrs by MTT assay. In kind it is functional, cell-based. The following applies: A549, 48 h.
Experiment [3] concerns HepG2. As to the kind of experiment: Induction of apoptosis in human HepG2 cells assessed as viable cells at 0.75 uM after 72 hrs by annexin V and propidium iodide staining-based flow cytometric analysis (reference value: 94.5 +/- 0.6%). In kind it is functional. The following applies: HepG2, 72 h, read-out: Activity. A general note: A flow cytometer gives signals particle by particle.

Experiment [4] concerns HepG2. Put plainly: Induction of apoptosis in human HepG2 cells assessed as chromatin condensation at 0.75 to 3 uM after 72 hrs by DAPI staining-based fluorescent microscopic analysis. The format is functional, cell-based.
Experiment [5] concerns HepG2. Put plainly: Induction of apoptosis in human HepG2 cells assessed as necrotic cells at 3 uM after 72 hrs by annexin V and propidium iodide staining-based flow cytometric analysis (reference value: 2.7 +/- 0.1%). The format is functional.
Experiment [6] relates to HepG2. Put plainly: Induction of apoptosis in human HepG2 cells assessed as late apoptotic cells at 1.5 uM after 72 hrs by annexin V and propidium iodide staining-based flow cytometric analysis (reference value: 1.4 %). In kind it is functional.
Experiment [7] has as its system HepG2. Put plainly: Induction of apoptosis in human HepG2 cells assessed as late apoptotic cells at 3 uM after 72 hrs by annexin V and propidium iodide staining-based flow cytometric analysis (reference value: 1.4 %). The format is functional.
For experiment [8], the system named is HepG2. As to the kind of experiment: Induction of apoptosis in human HepG2 cells assessed as viable cells at 3 uM after 72 hrs by annexin V and propidium iodide staining-based flow cytometric analysis (reference value: 94.5 +/- 0.6%). The format is functional. The following applies: HepG2, 72 h, read-out: Activity.
Experiment [9] relates to HepG2. As to the kind of experiment: Induction of apoptosis in human HepG2 cells assessed as necrotic cells at 1.5 uM after 72 hrs by annexin V and propidium iodide staining-based flow cytometric analysis (reference value: 2.7 +/- 0.1%). The format is functional.
The subject of experiment [10] is HepG2. Put plainly: Induction of apoptosis in human HepG2 cells assessed as karyopyknosis at 0.75 to 3 uM after 72 hrs by DAPI staining-based fluorescent microscopic analysis. The format is functional, cell-based.
In experiment [11] the test system is HepG2. Put plainly: Induction of apoptosis in human HepG2 cells assessed as early apoptotic cells at 0.75 uM after 72 hrs by annexin V and propidium iodide staining-based flow cytometric analysis (reference value: 1.4 +/- 0.1%). The format is functional.
In experiment [12] the test system is HepG2. As to the kind of experiment: Induction of apoptosis in human HepG2 cells assessed as viable cells at 1.5 uM after 72 hrs by annexin V and propidium iodide staining-based flow cytometric analysis (reference value: 94.5 +/- 0.6%). The format is functional. The following applies: HepG2, 72 h, read-out: Activity.
Experiment [13] relates to HepG2. Put plainly: Induction of apoptosis in human HepG2 cells assessed as necrotic cells at 0.75 uM after 72 hrs by annexin V and propidium iodide staining-based flow cytometric analysis (reference value: 2.7 +/- 0.1%). The format is functional.
Experiment [14] concerns HepG2. As to the kind of experiment: Induction of apoptosis in human HepG2 cells assessed as early apoptotic cells at 1.5 uM after 72 hrs by annexin V and propidium iodide staining-based flow cytometric analysis (reference value: 1.4 +/- 0.1%). In kind it is functional.
In experiment [15] the test system is HepG2. Put plainly: Induction of apoptosis in human HepG2 cells assessed as late apoptotic cells at 0.75 uM after 72 hrs by annexin V and propidium iodide staining-based flow cytometric analysis (reference value: 1.4 %). In kind it is functional.
Experiment [16] relates to HepG2. As to the kind of experiment: Induction of apoptosis in human HepG2 cells assessed as early apoptotic cells at 3 uM after 72 hrs by annexin V and propidium iodide staining-based flow cytometric analysis (reference value: 1.4 +/- 0.1%). The format is functional.

One may read the IC50 as the point on the concentration scale where inhibition reaches its midpoint. Read a low IC50 as greater potency in that assay. In the case of `O=c1cc(-c2ccccc2)oc2cc(O)c(O)c(O)c12` [BAICALEIN], the values for the IC50 (with HepG2 [1]; in experiment [2]; in the experiment with A549) were 28.3 µM, 19.1 µM and 13 µM, respectively.

`O=c1cc(-c2ccccc2)oc2cc(OCc3ccccc3)c(OCCCN3CCCCC3)c(O)c12`: the half-inhibitory concentration (IC50) in the experiment on HepG2 [1] was determined as 2.2 µM; in [2], 4.6 µM; in the experiment on A549 it was 3.1 µM.

On to `COc1cc2oc(-c3ccccc3)cc(=O)c2c(O)c1OCCCN1CCCCC1`, for which the IC50 was 22.3 µM with HepG2 [1], 25.3 µM in [2] and 17 µM in the experiment on A549.

Regarding `O=c1cc(-c2ccccc2)oc2cc(O)c(OCCCN3CCCCC3)c(O)c12`, the IC50 was 70.6 µM with HepG2 [1], 60.9 µM in [2] and above 100 µM in the experiment with A549.

Turning to `O=c1cc(-c2ccccc2)oc2cc(O)c(OCCCN3CCCC3)c(O)c12`, the IC50 (in the experiment with HepG2 [1]; in experiment [2]; in the experiment on A549) was above 100 µM each time.

Take `COc1cc2oc(-c3ccccc3)cc(=O)c2c(O)c1OCCCN1CCOCC1`: the IC50 came out at 9.2 µM with HepG2 [1], 43.1 µM in experiment [2] and 14 µM with A549.

As to `O=c1cc(-c2ccccc2)oc2cc(O)c(OCCCCN3CCOCC3)c(O)c12`, the figures for the IC50 (with HepG2 [1]; in [2]; with A549) were 67.2 µM, 58.7 µM and above 100 µM, respectively.

For the compound `COc1cc2oc(-c3ccccc3)cc(=O)c2c(O)c1OCCCN1CCCC1`, the 50% inhibitory concentration (IC50) came to 4.3 µM with HepG2 [1], 6.5 µM in experiment [2] and 6 µM in the experiment with A549.

For `CN1CCN(CCCCOc2c(OCc3ccccc3)cc3oc(-c4ccccc4)cc(=O)c3c2O)CC1`, the IC50 in the experiment on HepG2 [1] came out at 2.5 µM; in experiment [2] it was 7.2 µM; in the experiment on A549, 4.4 µM.

Turning to `O=c1cc(-c2ccccc2)oc2cc(OCc3ccccc3)c(OCCCCN3CCOCC3)c(O)c12`, the half-inhibitory concentration (IC50) in the experiment on HepG2 [1] was above 100 µM; in [2], 83.6 µM; with A549 it was above 100 µM.

For the compound `CCN(CC)CCCCOc1c(OCc2ccccc2)cc2oc(-c3ccccc3)cc(=O)c2c1O`, the 50% inhibitory concentration (IC50) in the experiment with HepG2 [1] turned out to be 2.2 µM; in [2], 4.2 µM; in the experiment with A549 it was 1.8 µM.

On to `COc1cc2oc(-c3ccccc3)cc(=O)c2c2c1OCCCCO2`, for which the concentration for half-maximal inhibition (IC50) (with HepG2 [1]; in experiment [2]; in the experiment on A549) was above 100 µM throughout.

Take `O=c1cc(-c2ccccc2)oc2cc(O)c(OCCCN3CCOCC3)c(O)c12`: the IC50 in the experiment on HepG2 [1] is 86.2 µM; in experiment [2], 88.3 µM; in the experiment on A549, above 100 µM.

As for `O=c1cc(-c2ccccc2)oc2cc(O)c(OCCCCN3CCCC3)c(O)c12`, the IC50 is above 100 µM in the experiment with HepG2 [1], 86.4 µM in [2] and 51 µM in the experiment with A549.

On to `O=c1cc(-c2ccccc2)oc2cc(OCc3ccccc3)c(OCCCCN3CCCCC3)c(O)c12`, for which the IC50 in the experiment with HepG2 [1] worked out at 2.4 µM; in [2], 3 µM; in the experiment with A549 it was 1.9 µM.

As for `O=c1cc(-c2ccccc2)oc2cc(OCc3ccccc3)c(OCCCCN3CCCC3)c(O)c12`, the viability at 0.75 µM in the experiment on HepG2 [3] was found to be 89.5%. The IC50 came out at 2 µM in the experiment on HepG2 [1], 3.2 µM in [2] and 0.8 µM in the experiment with A549. For the same compound, the outcome with HepG2 [4] and in the experiment on HepG2 [10] was Active. Also, the Activity came out at 8.3% with HepG2 [5]; 6.3% in the experiment on HepG2 [6]; 50.6% with HepG2 [7]; 11.1% in the experiment with HepG2 [9]; 3.2% with HepG2 [11]; 5.2% in the experiment on HepG2 [13]. Besides, the Activity in the experiment on HepG2 [14] is recorded as 5.1%; in the experiment on HepG2 [15] it was 2.2%; in the experiment with HepG2 [16], 30%. Also, the viability at 3 µM in the experiment on HepG2 [8] stood at 11.1%. In addition, the viability at 1.5 µM with HepG2 [12] was determined as 77.5%.

As for `O=c1cc(-c2ccccc2)oc2cc(OCc3ccccc3)c(OCCCN3CCCC3)c(O)c12`, the IC50 is 4.2 µM with HepG2 [1], above 100 µM in experiment [2] and 1.4 µM in the experiment on A549.

In the case of `CCN(CC)CCCCOc1c(OC)cc2oc(-c3ccccc3)cc(=O)c2c1O`, the IC50 in the experiment with HepG2 [1] amounted to 7.1 µM; in experiment [2] it was 17.4 µM; in the experiment with A549, 35 µM.

Take `COc1cc2oc(-c3ccccc3)cc(=O)c2c2c1OCCCO2`: the IC50 in the experiment on HepG2 [1] was 69 µM; in experiment [2] it was above 100 µM; in the experiment on A549 it was 51.3 µM.

For `COc1cc2oc(-c3ccccc3)cc(=O)c2c(O)c1OCCCN1CCN(C)CC1`, the IC50 in the experiment with HepG2 [1] turned out to be 15.1 µM; in experiment [2] it was 31.3 µM; in the experiment with A549, 18 µM.

Regarding `COc1cc2oc(-c3ccccc3)cc(=O)c2c(O)c1OCCCCN1CCN(C)CC1`, the IC50 in the experiment with HepG2 [1] was 36.7 µM; in [2], 53.5 µM; with A549, 32 µM.

Turning to `CN1CCN(CCCCOc2c(O)cc3oc(-c4ccccc4)cc(=O)c3c2O)CC1`, the IC50 in the experiment on HepG2 [1] is 93.7 µM; in [2], 82.9 µM; in the experiment with A549, above 100 µM.

Consider `O=c1cc(-c2ccccc2)oc2cc(O)c(OCCCCN3CCCCC3)c(O)c12`, for which the figures for the IC50 (in the experiment on HepG2 [1]; in [2]; in the experiment on A549) were above 100 µM, 52.7 µM and 75 µM, respectively.

As for `CCN(CC)CCCOc1c(OC)cc2oc(-c3ccccc3)cc(=O)c2c1O`, the IC50 was found to be 3.7 µM with HepG2 [1], 5.7 µM in [2] and 4.9 µM with A549.

On to `O=c1cc(-c2ccccc2)oc2cc(OCc3ccccc3)c(OCCCN3CCOCC3)c(O)c12`, for which the IC50 in the experiment with HepG2 [1] was 75.8 µM; in experiment [2], 51.4 µM; in the experiment on A549 it was above 100 µM.

For the compound `COc1cc2oc(-c3ccccc3)cc(=O)c2c(O)c1OCCCCN1CCCCC1`, the IC50 in the experiment on HepG2 [1] worked out at 21 µM; in experiment [2], 21.9 µM; with A549, 34 µM.

Consider `COc1cc2oc(-c3ccccc3)cc(=O)c2c(O)c1OCCCCN1CCCC1`, for which the IC50 in the experiment on HepG2 [1] was found to be 4.9 µM; in experiment [2] it was 10.6 µM; in the experiment with A549 it was 13 µM.

Regarding `CN1CCN(CCCOc2c(OCc3ccccc3)cc3oc(-c4ccccc4)cc(=O)c3c2O)CC1`, the IC50 in the experiment with HepG2 [1] came to 2.4 µM; in [2] it was 4.1 µM; in the experiment on A549, 1.3 µM.

`CN(C)CCCOc1c(OCc2ccccc2)cc2oc(-c3ccccc3)cc(=O)c2c1O`: the IC50 with HepG2 [1] amounted to 2.2 µM; in experiment [2], 5.5 µM; with A549 it was 2.6 µM.

Turning to `COc1cc2oc(-c3ccccc3)cc(=O)c2c(O)c1OCCCCN1CCOCC1`, the IC50 in the experiment on HepG2 [1] is 19.8 µM; in [2], 27.2 µM; in the experiment on A549 it was 25 µM.
